Reference: patent publication US9879013B2, “Purinone derivative” (ONO PHARMACEUTICAL CO., LTD., priority 2010, dated 2018)
pIC50: −log10 of the molar value.

Legend:
[1] = target: Btk (Homo sapiens (Human), UniProt Q06187); assay: Btk enzyme inhibitory activity (Z'-LYTE Kinase Assay Kit-Tyr1 peptide); type: biochemical; settings: Tyr-1 peptide 4 μM, Btk 5 nM, ATP 36 μM, 1 hour at 30° C.
Description: The Btk enzyme inhibitory activity was measured, based on the protocol provided by the manufacturer, using Btk (Invitrogen Corporation) and the Z′-LYTE® Kinase Assay Kit-Tyr1 peptide (Invitrogen Corporation), which contained the following reagents: Tyr-1 peptide, Thy-1 phosphopeptide, 5× kinase buffer, ATP, development reagent B, development buffer, and stop reagent.
5 μL/well of a solution of the test compound diluted with dimethyl sulfoxide (DMSO), or DMSO, and 10 μL/well of the substrate/enzyme mixture solution were dispensed to a 96-well assay plate and a reaction was carried out for 20 minutes at 30° C. […] The enzymatic reaction was then stopped by adding 10 μL of the stop solution.
The percent inhibition (%) by the test compound was calculated using the following equation. percent inhibition (%) of phosphorylation=1−{(AC−AX)/(AC−AB)}×100 [E1]

[2] = test system: B cells (CD20-positive CD3-negative cells) of human PBMC; assay: B cell activation using human PBMC (CD69-positive signal, FACS); type: cell-based; settings: anti-IgM antibody 1 μg/mL / IL-4 3 ng/mL, 22 hours
Description: Measurement of B Cell Activation or T Cell Activation Using Human PBMC
A 10 mmol/L solution of the test compound in DMSO was dispensed into a 96-well plate (Nunc) and a 5× dilution series was prepared using DMSO. A 100× concentration test compound dilution solution was prepared by an additional 10× dilution with RPMI1640 medium (contained 10% HI-FBS, 1% penicillin). Human peripheral blood mononuclear cells (PBMC) were diluted with the medium to provide a density of 2×10^6 cells/mL. 396 μL of the cell suspension was added to a 96-well plate into which 4 μL of the 100× concentration test compound dilution solution or the solvent (10% DMSO) had already been introduced and incubation was performed for 10 minutes at 37° C. and 5% CO2. 10 μL of an anti-IgM antibody (Southern Biotech)/IL-4 (R & D Systems) solution or an anti-CD3/CD28 antibody bead suspension (Invitrogen Corporation) was added to a 96-well plate and 90 μL of the cell suspension prepared as described above was also added (final concentrations: anti-IgM antibody=1 μg/mL, IL-4=3 ng/mL, and anti-CD3/CD28 antibody beads=2×10^6 beads/mL). 10 μL of the medium was added to the unstimulated sample wells in place of these stimulating substances, and standing at 37° C. and 5% CO2 was again performed. Incubation was carried out for 16 hours in the case of the evaluation of T cell activation and for 22 hours in the case of the evaluation of B cell activation. 100 μL Cytofix Buffer (BD Biosciences) was added; holding for 15 minutes at 37° C. was performed; centrifugation for 10 minutes at 1500 rpm was carried out; and the supernatant was removed. 200 μL of Perm buffer II (BD Biosciences) at −20° C. was added; holding for 30 minutes on ice was performed; centrifugation for 10 minutes at 1500 rpm was carried out; and the supernatant was removed. 0.5 mL Stain buffer (BD Biosciences) was added and centrifugation was carried out for 10 minutes at 1500 rpm. 100 μL of a mixed antibody solution was added and incubation was performed for 30 minutes on ice in the dark. The antibody was the 10× dilution with Stain Buffer of the 1:1:1 mixture of PerCP-labeled anti-CD3 antibody (BD Biosciences), AF488-labeled anti-CD20 antibody (BD Biosciences), and PE-labeled anti-CD69 antibody (BD Biosciences). 0.4 mL Stain Buffer was added and the supernatant was removed. […] The CD69-positive signal (average fluorescence intensity) of the CD20-positive CD3-negative cells (B cells) or CD3-positive CD20-negative cells (T cells) was measured. After subtracting the value for the unstimulated sample, the % inhibition with reference to the value for the stimulated control sample was determined. The % inhibition was graphically plotted using Prism (ver. 5.01 J, GraphPad Software) and the IC50 value was determined.

Sequence of Btk (Q06187 whole entry): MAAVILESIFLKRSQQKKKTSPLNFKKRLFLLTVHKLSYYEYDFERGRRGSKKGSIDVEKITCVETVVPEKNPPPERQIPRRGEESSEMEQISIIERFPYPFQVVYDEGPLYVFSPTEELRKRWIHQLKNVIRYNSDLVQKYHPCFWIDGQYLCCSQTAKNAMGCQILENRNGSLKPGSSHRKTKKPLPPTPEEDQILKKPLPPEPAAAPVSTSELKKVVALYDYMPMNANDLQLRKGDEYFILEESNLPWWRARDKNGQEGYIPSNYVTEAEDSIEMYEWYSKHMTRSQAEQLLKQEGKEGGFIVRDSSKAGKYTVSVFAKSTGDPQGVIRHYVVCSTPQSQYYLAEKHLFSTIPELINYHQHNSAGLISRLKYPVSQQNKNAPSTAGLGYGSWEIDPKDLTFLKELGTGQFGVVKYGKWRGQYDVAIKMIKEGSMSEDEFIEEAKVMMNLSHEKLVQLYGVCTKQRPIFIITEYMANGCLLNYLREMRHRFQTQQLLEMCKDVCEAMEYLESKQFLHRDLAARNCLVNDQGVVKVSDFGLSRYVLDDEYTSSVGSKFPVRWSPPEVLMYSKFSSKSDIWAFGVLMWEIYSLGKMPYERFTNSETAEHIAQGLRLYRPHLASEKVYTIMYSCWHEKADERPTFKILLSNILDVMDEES

pIC50 [1]: 8.40
Compound: C=CC(=O)N1CC(n2c(=O)n(-c3ccc(Oc4ccccc4)cc3)c3c(N)ncnc32)C1 [Example 8, 9-(1-acryloyl-3-azetidinyl)-6-amino-7-(4-phenoxyphenyl)-7,9-dihydro-8H-purin-8-one]
pIC50 [2]: 7.68
